Read-outs that look alike come from different tables or passages of the source.
Columns and labels:
Type in all cases: cell-based
SK-BR-3 = test: SRB colorimetric cell growth inhibition assay, SK-BR-3; settings: Homo sapiens, SK-BR-3, SK-BR-3; for GI50: GI=growth inhibition, read-out: GI50 SK-BR-3; for CC50: cell killing (cytotoxic effect), read-out: LC50 SK-BR-3; for IC (TGI): total growth inhibition (cytostatic effect), read-out: TGI SK-BR-3
Method in brief: (§1)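 Cells are kept under uninterrupted exposure to compound. Staining with sulforhodamine B then measures cell growth and viability. Triplicate data give mean ± SD, from which growth inhibition, total growth inhibition and lethal concentration values follow.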

A-549 = test: SRB colorimetric cell growth inhibition assay, A-549; settings: Homo sapiens, A549, A-549; for GI50: GI=growth inhibition, read-out: GI50 A-549; for CC50: read-out: LC50 A-549; for IC (TGI): read-out: TGI A-549
Method in brief: as §1

IGROV = test: SRB colorimetric cell growth inhibition assay, IGROV; settings: Homo sapiens, IGROV; for GI50: GI=growth inhibition, read-out: GI50 IGROV; for CC50: cell killing (cytotoxic effect), read-out: LC50 IGROV; for IC (TGI): total growth inhibition (cytostatic effect), read-out: TGI IGROV
Method in brief: as §1

LoVo = test: SRB colorimetric cell growth inhibition assay, LoVo; settings: Homo sapiens, LoVo; for GI50: GI=growth inhibition, read-out: GI50 LOVO; for CC50: read-out: LC50 LOVO; for IC (TGI): read-out: TGI LOVO
Method in brief: as §1

[1] = SRB colorimetric cell growth inhibition assay, H-MEC-1; settings: human, H-MEC-1 cells; H-MEC-1; cell killing (cytotoxic effect); read-out: LC50 H-MEC-1
Method in brief: (§2)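 Sulforhodamine B colorimetric assay of cell growth and viability, mean ± SD of triplicate wells. Parameters derived: GI (growth inhibition), TGI (total growth inhibition, cytostatic) and LC (cell killing, cytotoxic).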

H-MEC-1 = test: as above; settings: Homo sapiens, HMEC-1, H-MEC-1; for GI50: GI=growth inhibition, read-out: GI50 H-MEC-1; for IC (TGI): total growth inhibition (cytostatic effect), read-out: TGI H-MEC-1
Method in brief: as §2

DU-145 = test: SRB colorimetric cell growth inhibition assay, DU-145; settings: Homo sapiens, DU-145, DU-145; for GI50: GI=growth inhibition, read-out: GI50 DU-145; for CC50: cell killing (cytotoxic effect), read-out: LC50 DU-145; for IC (TGI): total growth inhibition (cytostatic effect), read-out: TGI DU-145
Method in brief: as §1

SK-MEL-28 = test: SRB colorimetric cell growth inhibition assay, SK-MEL-28; settings: Homo sapiens, SK-MEL-28, MEL-28; for GI50: GI=growth inhibition, read-out: GI50 MEL-28; for CC50: cell killing (cytotoxic effect), read-out: LC50 MEL-28; for IC (TGI): total growth inhibition (cytostatic effect), read-out: TGI MEL-28
Method in brief: as §1

K-562 = test: SRB colorimetric cell growth inhibition assay, K-562; settings: Homo sapiens, K562, K-562; for GI50: GI=growth inhibition, read-out: GI50 K-562; for CC50: read-out: LC50 K-562; for IC (TGI): read-out: TGI K-562
Method in brief: as §1

LNCaP = test: SRB colorimetric cell growth inhibition assay, LNCaP; settings: Homo sapiens, LNCaP, LN-caP; for GI50: GI=growth inhibition, read-out: GI50 LN-caP; for CC50: cell killing (cytotoxic effect), read-out: LC50 LN-caP; for IC (TGI): total growth inhibition (cytostatic effect), read-out: TGI LN-caP
Method in brief: as §1

PANC-1 = test: SRB colorimetric cell growth inhibition assay, PANC-1; settings: Homo sapiens, PANC-1, PANC-1; for GI50: GI=growth inhibition, read-out: GI50 PANC-1; for CC50: read-out: LC50 PANC-1; for IC (TGI): read-out: TGI PANC-1
Method in brief: as §1

HT-29 = test: SRB colorimetric cell growth inhibition assay, HT-29; settings: Homo sapiens, HT-29, HT-29; for GI50: GI=growth inhibition, read-out: GI50 HT-29; for CC50: read-out: LC50 HT-29; for IC (TGI): read-out: TGI HT-29
Method in brief: as §1

LoVo-Dox = test: SRB colorimetric cell growth inhibition assay, LoVo-Dox (MDR); settings: Homo sapiens, LOVO-DOX; for GI50: GI=growth inhibition, read-out: GI50 LOVO-DOX; for CC50: read-out: LC50 LOVO-DOX; for IC (TGI): read-out: TGI LOVO-DOX
Method in brief: as §1

SKOV-3 = test: SRB colorimetric cell growth inhibition assay, SKOV-3; settings: Homo sapiens; for GI50: SK-OV-3, SKOV-3, GI=growth inhibition, read-out: GI50 SKOV-3; for LC50 (concentration causing 50% net cell killing) / IC (TGI): SK-OV-3, SKOV-3; for LC50 (concentration causing 50% net cell killing): cell killing (cytotoxic effect), read-out: LC50 SKOV-3; for IC (TGI): total growth inhibition (cytostatic effect), read-out: TGI SKOV-3
Method in brief: as §2

IGROV-ET = test: SRB colorimetric cell growth inhibition assay, IGROV-ET (ET-743 resistant); settings: Homo sapiens, IGROV-ET; for GI50: GI=growth inhibition, read-out: GI50 IGROV-ET; for CC50: cell killing (cytotoxic effect), read-out: LC50 IGROV-ET; for IC (TGI): total growth inhibition (cytostatic effect), read-out: TGI IGROV-ET
Method in brief: as §1

[2] = LC=cell killing (cytotoxic effect)
[3] = TGI=total growth inhibition (cytostatic effect)
[4] = cell killing (cytotoxic effect)
[5] = total growth inhibition (cytostatic effect)

SMILES: COc1cc(-c2c3c4cc(OC)c(OC(=O)[C@@H]5CCCN5)cc4oc(=O)c3n3ccc4c(OC(=O)[C@@H]5CCCN5)c(OC)c(OC)cc4c23)ccc1OC(=O)[C@@H]1CCCN1 [Compound 30]
- GI50 (SK-BR-3): 498 nM
- CC50 (SK-BR-3): 6390 nM
- IC (TGI) (SK-BR-3): 1610 nM
- GI50 (A-549): 341 nM
- CC50 (A-549; [2]): 6640 nM
- IC (TGI) (A-549; [3]): 1270 nM
- GI50 (IGROV): 350 nM
- CC50 (IGROV): 6990 nM
- IC (TGI) (IGROV): 1470 nM
- GI50 (LoVo): 383 nM
- CC50 (LoVo; [2]): 3770 nM
- IC (TGI) (LoVo; [3]): 1060 nM
- LC50 (concentration giving 50% net cell killing) [1]: 840 nM
- GI50 (H-MEC-1): 70.5 nM
- IC (TGI) (H-MEC-1): 241 nM
- GI50 (DU-145): 53.8 nM
- CC50 (DU-145): 3840 nM
- IC (TGI) (DU-145): 265 nM
- GI50 (SK-MEL-28): 251 nM
- CC50 (SK-MEL-28): 4420 nM
- IC (TGI) (SK-MEL-28): 1080 nM
- GI50 (K-562): 204 nM
- CC50 (K-562; [2]): 8600 nM
- IC (TGI) (K-562; [3]): 1100 nM
- GI50 (LNCaP): 275 nM
- CC50 (LNCaP): 4900 nM
- IC (TGI) (LNCaP): 1270 nM
- GI50 (PANC-1): 805 nM
- CC50 (PANC-1; [2]): 5640 nM
- IC (TGI) (PANC-1; [3]): 2180 nM
- GI50 (HT-29): 2810 nM
- CC50 (HT-29; [2]): 8600 nM
- IC (TGI) (HT-29; [3]): 5060 nM
- GI50 (LoVo-Dox): 683 nM
- CC50 (LoVo-Dox; [2]): 5220 nM
- IC (TGI) (LoVo-Dox; [3]): 1930 nM
- GI50 (SKOV-3): 348 nM
- LC50 (concentration causing 50% net cell killing) (SKOV-3): 5360 nM
- IC (TGI) (SKOV-3): 1240 nM
- GI50 (IGROV-ET): 450 nM
- CC50 (IGROV-ET): 6630 nM
- IC (TGI) (IGROV-ET): 1830 nM

SMILES: COc1cc(-c2c3n(c4c(=O)oc5cc(O)c(OC)cc5c24)CCc2c-3cc(OC)c(OC)c2O)ccc1O [Compound 1]
- GI50 (SK-BR-3): 2370 nM
- CC50 (SK-BR-3): 18800 nM
- IC (TGI) (SK-BR-3): 10900 nM
- GI50 (A-549): ≥ 1880 nM
- CC50 (A-549; [4]): ≥ 1880 nM
- IC (TGI) (A-549; [5]): 1880 nM
- GI50 (IGROV): 493 nM
- CC50 (IGROV): 18800 nM
- IC (TGI) (IGROV): 1760 nM
- GI50 (LoVo): 11800 nM
- CC50 (LoVo; [4]): 18800 nM
- IC (TGI) (LoVo; [5]): 57600 nM
- LC50 (concentration giving 50% net cell killing) [1]: 5720 nM
- GI50 (H-MEC-1): 606 nM
- IC (TGI) (H-MEC-1): 1380 nM
- GI50 (DU-145): 8240 nM
- CC50 (DU-145): 17000 nM
- IC (TGI) (DU-145): 11800 nM
- GI50 (SK-MEL-28): 2240 nM
- CC50 (SK-MEL-28): 11300 nM
- IC (TGI) (SK-MEL-28): 5040 nM
- GI50 (K-562): 815 nM
- CC50 (K-562; [4]): 2970 nM
- IC (TGI) (K-562; [5]): 2110 nM
- GI50 (LNCaP): 277 nM
- CC50 (LNCaP): 7850 nM
- IC (TGI) (LNCaP): 1440 nM
- GI50 (PANC-1): 2200 nM
- CC50 (PANC-1; [4]): 18800 nM
- IC (TGI) (PANC-1; [5]): 7940 nM
- GI50 (HT-29): ≥ 18800 nM
- CC50 (HT-29; [4]): 18800 nM
- IC (TGI) (HT-29; [5]): 18800 nM
- GI50 (LoVo-Dox): 801 nM
- CC50 (LoVo-Dox; [4]): 18800 nM
- IC (TGI) (LoVo-Dox; [5]): 7130 nM
- GI50 (SKOV-3): 13700 nM
- LC50 (concentration causing 50% net cell killing) (SKOV-3): 18800 nM
- IC (TGI) (SKOV-3): 18800 nM
- GI50 (IGROV-ET): 444 nM
- CC50 (IGROV-ET): 18800 nM
- IC (TGI) (IGROV-ET): 1200 nM
